Test results as given in patent US20250092054A1, “FUSED PYRIDINES FOR CONTROLLING INVERTEBRATE PESTS” (FMC Corporation, priority 2021, published 2025).
Where two headings read alike, the source gives them in different places.

Experiments:
Format in all cases: in vivo
[1] = system: corn planthopper (Peregrinus maidis (Ashmead)); test: Test C: control of corn planthopper through contact and/or systemic means; details: 144 h, corn plant post-infested with nymphs, assessed after 6 days; for mortality at 50 ppm: sprayed at 50 ppm
Protocol: (§1) Test compounds were formulated using a solution containing 10% acetone, 90% water and 300 ppm Activator 90® non-ionic surfactant (Loveland Products, Loveland, Colorado, USA). The formulated compounds were applied in 1 mL of liquid through an atomizer nozzle positioned 1.27 cm (0.5 inches) above the top of each test unit. Test compounds were sprayed at the rates indicated, and each test was replicated three times.
For evaluating control of corn planthopper (Peregrinus maidis (Ashmead)) through contact and/or systemic means, the test unit consisted of a small open container with a 3-4-day-old corn (maize) plant inside. White sand was added to the top of the soil prior to application of the test compound.
(§2) Test compounds were formulated and sprayed at 50 and 10 ppm. After spraying of the formulated test compound, the test units were allowed to dry for 1 h before they were post-infested with ˜15-20 nymphs (18-to-21-day-old). A black, screened cap was placed on the top of each test unit, and the test units were held for 6 days in a growth chamber at 22-24° C. and 50-70% relative humidity. Each test unit was then visually assessed for insect mortality.

[2] = system: potato leafhopper (Empoascafabae (Harris)); test: Test D: control of potato leafhopper through contact and/or systemic means; details: 144 h
Protocol: as §1
For evaluating control of potato leafhopper (Empoascafabae (Harris)) through contact and/or systemic means, the test unit consisted of a small open container with a 5-6-day-old Soleil bean plant (primary leaves emerged) inside. White sand was added to the top of the soil, and one of the primary leaves was excised prior to application of the test compound.
as §2, with “1 hour” for “1 h”, “with 5 potato leafhoppers (18-to-21-day-old adults).” for “with ˜15-20 nymphs (18-to-21-day-old).”, “of the” for “of each”, “at 20°” for “at 22-24°”, “and 70%” for “and 50-70%”

[3] = system: green peach aphid (Myzus persicae (Sulzer)); test: Test E: control of green peach aphid through contact and/or systemic means; details: 144 h
Protocol: as §1
For evaluating control of green peach aphid (Myzus persicae (Sulzer)) through contact and/or systemic means, the test unit consisted of a small open container with a 12-15-day-old radish plant inside. This was pre-infested by placing on a leaf of the test plant 30-40 aphids on a piece of leaf excised from a culture plant (cut-leaf method). The aphids moved onto the test plant as the leaf piece desiccated. After pre-infestation, the soil of the test unit was covered with a layer of sand.
Test compounds were formulated and sprayed at 50 and 10 ppm. After spraying of the formulated test compound, each test unit was allowed to dry for 1 hour and then a black, screened cap was placed on top. The test units were held for 6 days in a growth chamber at 19-21° C. and 50-70% relative humidity. Each test unit was then visually assessed for insect mortality.

[4] = system: cotton melon aphid (Aphis gossypii (Glover)); test: Test F: control of cotton melon aphid through contact and/or systemic means; details: 144 h
Protocol: as §1
For evaluating control of cotton melon aphid (Aphis gossypii (Glover)) through contact and/or systemic means, the test unit consisted of a small open container with a 5-day-old okra plant inside. This was pre-infested with 30-40 insects on a piece of leaf according to the cut-leaf method, and the soil of the test unit was covered with a layer of sand.
Test compounds were formulated and sprayed at 50 and 10 ppm. After spraying, the test units were maintained in a growth chamber for 6 days at 19° C. and 70% relative humidity. Each test unit was then visually assessed for insect mortality.

[5] = sprayed at 10 ppm, Soleil bean plant post-infested with adults, assessed after 6 days, read-out: mortality
[6] = sprayed at 50 ppm, Soleil bean plant post-infested with adults, assessed after 6 days, read-out: mortality
[7] = sprayed at 50 ppm, pre-infested radish plant, assessed after 6 days, read-out: mortality
[8] = sprayed at 50 ppm, pre-infested okra plant, assessed after 6 days, read-out: mortality

CCC(=O)NCc1ncc(C2=NOC(c3cccc(C(F)(F)F)c3)(C(F)(F)F)C2)c2ccoc12 (stereo not shown) [Compound 23, N-[[4-[4,5-dihydro-5-(trifluoromethyl)-5-[3-(trifluoromethyl)phenyl]-3-isoxazolyl]furo[2,3-c]pyridin-7-yl]methyl]propanamid]
≥ 80%: mortality at 10 ppm ([1]; sprayed at 10 ppm) | mortality at 50 ppm [1] | mortality at 10 ppm [2, 5] | mortality at 50 ppm [2, 6] | mortality at 10 ppm ([3]; sprayed at 10 ppm, pre-infested radish plant, assessed after 6 days) | mortality at 50 ppm [3, 7] | mortality at 10 ppm ([4]; sprayed at 10 ppm, pre-infested okra plant, assessed after 6 days) | mortality at 50 ppm [4, 8]

O=C(NC1CSC1)c1cnc(C2=NOC(c3cc(Cl)cc(Cl)c3)(C(F)(F)F)C2)c2ccsc12 (stereo not shown) [Compound 27, 4-[5-(3,5-dichlorophenyl)-4,5-dihydro-5-(trifluoromethyl)-3-isoxazolyl]-N-3-thietanylthieno[3,2-c]pyridine-7-carboxamide]
≥ 80%: mortality at 50 ppm [2]

O=C(NC1CC1)c1ncc(C2=NOC(c3cc(Cl)c(F)c(Cl)c3)(C(F)(F)F)C2)c2ccoc12 (stereo not shown) [Compound 13, N-cyclopropyl-4-[5-(3,5-dichloro-4-fluorophenyl)-4,5-dihydro-5-(trifluoro-methyl)-3-isoxazolyl]furo[2,3-c]pyridine-7-carboxamide]
≥ 80%: mortality at 10 ppm [2] | mortality at 50 ppm [2] | mortality at 50 ppm ([3]; in Raphanus sativus) | mortality at 50 ppm [4]

O=C(NC1CC1)c1cnc(C2=NOC(c3cc(Cl)cc(Cl)c3)(C(F)(F)F)C2)c2sccc12 (stereo not shown) [Compound 11, N-cyclopropyl-7-[5-(3,5-dichlorophenyl)-4,5-dihydro-5-(trifluoromethyl)-3-isoxazolyl]thieno[2,3-c]pyridine-4-carboxamide]
≥ 80%: mortality at 10 ppm [2] | mortality at 50 ppm [2]

CNC(=O)[C@@H](C)NC(=O)c1cnc(C2=NOC(c3cc(Cl)cc(Cl)c3)(C(F)(F)F)C2)c2sccc12 (stereo partly drawn) [Compound 7, 7-[5-(3,5-dichlorophenyl)-4,5-dihydro-5-(trifluoromethyl)-3-isoxazolyl]-N-[(1R)-1-methyl-2-(methylamino)-2-oxo-ethyl]thieno[2,3-c]pyridine-4-carboxamide]
≥ 80%: mortality at 10 ppm [2] | mortality at 50 ppm [2] | mortality at 50 ppm ([3]; in Raphanus sativus) | mortality at 50 ppm [4]

O=C(NCC1CC1)c1ncc(C2=NOC(c3cc(Cl)c(F)c(Cl)c3)(C(F)(F)F)C2)c2ccoc12 (stereo not shown) [Compound 14, N-(cyclopropylmethyl)-4-[5-(3,5-dichloro-4-fluorophenyl)-4,5-dihydro-5-(trifluoromethyl)-3-isoxazolyl]furo[2,3-c]pyridine-7-carboxamide]
≥ 80%: mortality at 10 ppm [2] | mortality at 50 ppm [2]

CNC(=O)[C@@H](C)NC(=O)c1ncc(C2=NOC(c3cc(Cl)c(F)c(Cl)c3)(C(F)(F)F)C2)c2c1CCC2 (stereo partly drawn) [Compound 30, 4-[5-(3,5-dichloro-4-fluorophenyl)-4,5-dihydro-5-(trifluoromethyl)-3-isoxazolyl]-6,7-dihydro-N-[(1R)-1-methyl-2-(methylamino)-2-oxoethyl]-5H-cyclopenta[c]pyridine-1-carboxamide]
≥ 80%: mortality at 50 ppm [4]

CC(=O)NCc1ncc(C2=NOC(c3cccc(C(F)(F)F)c3)(C(F)(F)F)C2)c2ccoc12 (stereo not shown) [Compound 1, N-[[4-[4,5-dihydro-5-(trifluoromethyl)-5-[3-(trifluoromethyl)phenyl]-3-isoxazolyl]furo[2,3-c]pyridin-7-yl]methyl]acetamide]
≥ 80%: mortality at 50 ppm [1] | mortality at 10 ppm [2, 5] | mortality at 50 ppm [2, 6] | mortality at 50 ppm [3, 7] | mortality at 50 ppm [4, 8]

O=C(NC1CC1)c1cnc(C2=NOC(c3cc(Cl)cc(Cl)c3)(C(F)(F)F)C2)c2ccsc12 (stereo not shown) [Compound 26, N-cyclopropyl-4-[5-(3,5-dichlorophenyl)-4,5-dihydro-5-(trifluoromethyl)-3-isoxazolyl]thieno[3,2-c]pyridine-7-carboxamide]
≥ 80%: mortality at 50 ppm [2]
